Assay results reported in patent US20240400584A1, “COMPOUNDS AND METHODS FOR MODULATING SPLICING” (REMIX THERAPEUTICS INC., priority 2021, published 2024).

system: HiBit-tagged Target C in K562 cells; assay: HiBiT protein abundance assay, Target C; type: cell-based, human; conditions: HiBiT-modified K562 cells, 24 hours, luminescence
Procedure: Compounds described herein were used to screen for effects on quantitative protein abundance using a HiBit assay system (Promega). Quantitative protein abundance was determined by measuring the protein levels of HiBit-tagged protein targets expressed in cell culture via luminescence using the Nano-Glo HiBiT Lytic Detection System, which uses a split complementation assay format to reconstitute NanoBiT enzyme to generate a luminescent signal. A protein abundance assay was developed such that endogenous protein targets could be modified with the HiBiT peptide tag and their abundance could be assessed after compound treatment. Briefly, K562 cell lines containing a HiBiT-modification were treated with various compounds described herein (e.g., compounds of Formulas (I)). After treatment for 24 hours, the protein abundance of a specific target was determined by measuring luminescence.
Cells were maintained in IMDM with 10% FBS. Before the assay, cells were diluted with […] growth media (IMDM+[…] media) and were seeded in a 384-well plate at a density of 10000 cells/well (for each cell line listed in Table 8). Each compound was prepared as a 10-point 3-fold serial dilution in DMSO with the top dose at a final concentration of 10 μM in the well. Unmodified K562 cells were added at the previously specified density with DMSO to serve as an assay baseline and positive control (PC) and DMSO only with the respective modified cell lines was added to the negative control (NC) columns. Final DMSO concentration was kept at or below 0.25% o. Treated cell plates were placed in an incubator at 37° C. with […] for 24 hours. After 24 hours, 25 μL of Complete HiBit Lytic reagent was added to each well at room temperature (e.g. one plate requiring 10 mL Lytic Buffer, 100 μL LgBiT Protein, 200 μL Lytic Substrate), shaken for 5 minutes at 600 RPM, then left to sit for 10 minutes for signal to stabilize before reading on a Spark Cyto plate reader (Tecan) with a 500 ms measurement time.
To determine compound effects on protein abundance of each target in Table 9, the percent response for each respective cell line was calculated at each compound concentration as follows:
For the normalized response at each concentration, a four-parameter logistical regression was fit to the data and the response was interpolated at the […] to determine a concentration for protein abundance at 50% o (IC50) the untreated control.

Structure (SMILES) | IC50 [µM]
C[C@@H]1C[C@H](N(C)c2ccc3c(c2)OCc2cc(-c4cn[nH]c4)ccc2-3)CCN1 [Compound 101] | 1 to 10
C[C@H]1C[C@H](N(C)c2ccc3c(c2)OCc2cc(-c4cn[nH]c4)ccc2-3)CCN1 [Compound 102] | 1 to 10
CN(c1ccc2c(c1)OCc1cc(-c3cn[nH]c3)ccc1-2)[C@@H]1C[C@H]2CC[C@@H](C1)N2 [Compound 104] | 1 to 10
CN(c1ccc2c(c1)OCc1cc(-n3cccn3)ccc1-2)[C@@H]1C[C@H]2CC[C@@H](C1)N2 [Compound 105] | 1 to 10
CN(c1ccc2c(n1)OCc1cc(-c3cn[nH]c3)ccc1-2)[C@@H]1C[C@H]2CC[C@@H](C1)N2 [Compound 108] | < 0.1
CN(c1ccc2c(c1)CCOc1cc(-n3cccn3)ccc1-2)[C@@H]1C[C@H]2CC[C@@H](C1)N2 [Compound 113] | > 10
CN(c1ccc2c(n1)OCc1cc(-c3cn[nH]c3)ccc1-2)C1CCNCC1 [Compound 116] | 1 to 10
CN(c1ccc2c(c1)COc1cc(-n3cccn3)ccc1-2)C1CC(C)(C)NC(C)(C)C1 [Compound 117] | 1 to 10
CC1(C)CC(Nc2ccc3c(c2)COc2cc(-n4cccn4)ccc2-3)CC(C)(C)N1 [Compound 118] | 1 to 10
CN(c1ccc2c(n1)COc1cc(-c3cn[nH]c3)ccc1-2)[C@@H]1C[C@H]2CC[C@@H](C1)N2 [Compound 121] | 0.1 to 1
CN(c1ccc2c(n1)COc1cc(-n3cccn3)ccc1-2)[C@@H]1C[C@H]2CC[C@@H](C1)N2 [Compound 124] | 1 to 10
CN(c1ccc2c(n1)COc1cc(-n3cccn3)ccc1-2)C1CC(C)(C)NC(C)(C)C1 [Compound 125] | 1 to 10
CN(c1ccc2c(n1)CCOc1cc(-n3cccn3)ccc1-2)C1CC(C)(C)NC(C)(C)C1 [Compound 129] | > 10
CC1(C)CC(Nc2ccc3c(n2)COc2cc(-n4cccn4)ccc2-3)CC(C)(C)N1 [Compound 134] | 1 to 10
CN(c1cnc2c(n1)OCc1cc(-c3cn[nH]c3)ccc1-2)C1CC(C)(C)NC(C)(C)C1 [Compound 142] | 1 to 10
c1cc2c(cc1-c1cn[nH]c1)COc1nc(N[C@@H]3C[C@H]4CC[C@@H](C3)N4)cnc1-2 [Compound 143] | 0.1 to 1
CN(c1cnc2c(n1)OCc1cc(-c3cn[nH]c3)ccc1-2)[C@@H]1C[C@H]2CC[C@@H](C1)N2 [Compound 144] | < 0.1
CN(c1ccc2c(n1)OCCc1cc(-c3cn[nH]c3)ccc1-2)C1CC(C)(C)NC(C)(C)C1 [Compound 145] | 1 to 10
CN(c1ccc2c(n1)OCCc1cc(-c3cn[nH]c3)ccc1-2)[C@@H]1C[C@H]2CC[C@@H](C1)N2 [Compound 146] | 1 to 10
CN(c1ccc2c(n1)OCc1cc(-c3cn[nH]c3)ccc1-2)C1CC(C)(C)NC(C)(C)C1 [Compound 147] | 0.1 to 1
CN(c1ccc2c(n1)OCc1cc(-n3cccn3)ccc1-2)C1CC(C)(C)NC(C)(C)C1 [Compound 148] | 1 to 10
CN(c1ccc2c(n1)OCc1cc(-n3cccn3)ccc1-2)[C@@H]1C[C@H]2CC[C@@H](C1)N2 [Compound 149] | 0.1 to 1
CN(c1ccc2c(n1)OCc1cc(-n3nccn3)ccc1-2)[C@@H]1C[C@H]2CC[C@@H](C1)N2 [Compound 151] | < 0.1
CN(c1ccc2c(n1)OCc1cc(-n3ccnn3)ccc1-2)[C@@H]1C[C@H]2CC[C@@H](C1)N2 [Compound 152] | 0.1 to 1
CN(c1ccc2c(n1)OCc1cc(-c3ccn(C)c(=O)c3)ccc1-2)[C@@H]1C[C@H]2CC[C@@H](C1)N2 [Compound 153] | < 0.1

Structure (SMILES) | IC50 [µM]
Cc1[nH]ncc1-c1ccc2c(c1)COc1nc(N(C)[C@@H]3C[C@H]4CC[C@@H](C3)N4)ccc1-2 [Compound 154] | 0.1 to 1
Cc1ncc(-c2ccc3c(c2)COc2nc(N(C)[C@@H]4C[C@H]5CC[C@@H](C4)N5)ccc2-3)o1 [Compound 155] | < 0.1
COc1cc(-c2ccc3c(c2)COc2nc(N(C)[C@@H]4C[C@H]5CC[C@@H](C4)N5)ccc2-3)ccn1 [Compound 156] | 0.1 to 1
CN(c1ccc2c(n1)OCc1cc(-c3ccc(=O)[nH]c3)ccc1-2)[C@@H]1C[C@H]2CC[C@@H](C1)N2 [Compound 157] | 1 to 10
CN(c1ccc2c(n1)OCc1cc(-c3ccc(=O)n(C)c3)ccc1-2)[C@@H]1C[C@H]2CC[C@@H](C1)N2 [Compound 158] | 1 to 10
COc1cc(-c2ccc3c(c2)COc2nc(N(C)[C@@H]4C[C@H]5CC[C@@H](C4)N5)ccc2-3)cnn1 [Compound 159] | < 0.1
CN(c1ccc2c(n1)OCc1cc(-c3cnn(C)c(=O)c3)ccc1-2)[C@@H]1C[C@H]2CC[C@@H](C1)N2 [Compound 160] | < 0.1
CN(c1ccc2c(n1)OCc1cc(-c3cnc(=O)[nH]c3)ccc1-2)[C@@H]1C[C@H]2CC[C@@H](C1)N2 [Compound 161] | > 10
CN(c1ccc2c(n1)OCc1cc(-c3cc(=O)n(C)cn3)ccc1-2)[C@@H]1C[C@H]2CC[C@@H](C1)N2 [Compound 162] | < 0.1
CN(c1ccc2c(n1)OCc1cc(-n3ccnc3)ccc1-2)[C@@H]1C[C@H]2CC[C@@H](C1)N2 [Compound 163] | < 0.1
Cc1cn(-c2ccc3c(c2)COc2nc(N(C)[C@@H]4C[C@H]5CC[C@@H](C4)N5)ccc2-3)cn1 [Compound 164] | < 0.1
CC1(C)CC(Nc2ccc3c(n2)OCc2cc(-n4cccn4)ccc2-3)CC(C)(C)N1 [Compound 165] | 0.1 to 1
c1cnn(-c2ccc3c(c2)COc2nc(NC4CNC4)ccc2-3)c1 [Compound 166] | > 10
Cc1cnc(-c2ccc3c(c2)COc2nc(N(C)[C@@H]4C[C@H]5CC[C@@H](C4)N5)ccc2-3)o1 [Compound 206] | 0.1 to 1
c1cc2c(cc1-c1cn[nH]c1)COc1nc(N3CCC34CCNC4)ccc1-2 (stereo not shown) [Compound 207] | 1 to 10
Cc1ncc(-c2ccc3c(c2)COc2nc(O[C@@H]4C[C@H]5C[C@@H](C4)N5)ccc2-3)s1 [Compound 208] | < 0.1
c1cc2c(cc1-c1cn[nH]c1)COc1nc(O[C@@H]3C[C@H]4CC[C@@H](C3)N4)ccc1-2 [Compound 218] | 0.1 to 1
COc1cc(-c2ccc3c(c2)COc2nc(N4CCC(NC5(C)CCC5)C4)ccc2-3)cnn1 (stereo not shown) [Compound 285, 1-[8-(6-methoxypyridazin-4-yl)-6H-isochromeno[3,4-b]pyridin-3-yl]-N-(1-methylcyclobutyl)pyrrolidin-3-amine] | 0.1 to 1
CC(C)Oc1cnnc(-c2ccc3c(c2)COc2nc(N4CCC(NC(C)(C)C)C4)ccc2-3)c1 (stereo not shown) [Compound 286] | 1 to 10
COc1cc(-c2ccc3c(c2)COc2nc(N4CCN[C@@H](C)C4)ccc2-3)cnn1 [Compound 287] | 0.1 to 1
COc1cc(-c2ccc3c(c2)COc2nc(O[C@@H]4C[C@H]5COC[C@@H](C4)N5)ccc2-3)cnn1 [Compound 290, (exo)-7-{[8-(6-methoxypyridazin-4-yl)-6H-isochromeno[3,4-b]pyridin-3-yl]oxy}-3-oxa-9-azabicyclo[3.3.1]nonane] | < 0.1
COc1cc(-c2ccc3c(c2)COc2nc(N4CCC(N5CCCC5)C4)ccc2-3)cnn1 (stereo not shown) [Compound 305] | 0.1 to 1
COc1cc(-c2ccc3c(c2)COc2nc(N4CCC(N(C)C)C4)ccc2-3)cnn1 (stereo not shown) [Compound 306, 1-[8-(6-methoxypyridazin-4-yl)-6H-isochromeno[3,4-b]pyridin-3-yl]-N,N-dimethylpyrrolidin-3-amine] | 0.1 to 1
COc1cc(-c2ccc3c(c2)COc2nc(N4CCC(N(C)C5CCC5)C4)ccc2-3)cnn1 (stereo not shown) [Compound 307, N-cyclobutyl-1-[8-(6-methoxypyridazin-4-yl)-6H-isochromeno[3,4-b]pyridin-3-yl]-N-methylpyrrolidin-3-amine] | 0.1 to 1
